Experimental findings from patent publication US6057311A, “Benzodiazonine derivatives binding to cholecystokinin or gastrin receptors” (James Black Foundation Limited, priority 1996, dated 2000) are described below.

In one experiment the target is T1, CCKA (Cavia porcellus, UniProt Q63931).
T1 construct: The pancreatata were removed from male guinea-pigs; from tissue; host or cells: pancreas of male Dunkin Hartley guinea pigs, membranes
T1 sequence (Q63931 1-430): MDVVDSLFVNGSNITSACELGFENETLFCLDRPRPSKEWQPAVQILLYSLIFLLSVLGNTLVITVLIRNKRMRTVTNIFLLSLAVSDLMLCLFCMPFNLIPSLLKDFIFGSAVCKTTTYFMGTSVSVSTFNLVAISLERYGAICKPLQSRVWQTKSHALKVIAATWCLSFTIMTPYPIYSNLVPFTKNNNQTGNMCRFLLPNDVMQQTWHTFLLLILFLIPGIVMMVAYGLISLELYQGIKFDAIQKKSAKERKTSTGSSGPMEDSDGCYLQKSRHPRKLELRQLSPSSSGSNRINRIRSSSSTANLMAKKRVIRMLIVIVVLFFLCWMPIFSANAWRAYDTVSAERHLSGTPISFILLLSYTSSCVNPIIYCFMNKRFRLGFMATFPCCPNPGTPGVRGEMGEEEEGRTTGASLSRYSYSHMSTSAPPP
Briefly: CCKA binding assay, guinea pig pancreas membranes ([125I]-CCK8(S)). As to conditions: [125I]-CCK8(S) 200 pM, 0.375 μM PD134,308, 150 min at 21±3° C.; for Ki: pH 7.2, read-out: pKi (Guinea pig pancreas) (converted); for pKi (Guinea pig pancreas): pH 7.2. The protocol: The compounds of the examples were also tested in a CCKA binding assay as follows:
The pancreatata were removed from male guinea-pigs (200-300 g; Dunkin Hartley) and placed in ice-cold HEPES buffer (pH 7.2@21±3° C.). The pancreatata were homogenised in 40 ml ice-cold HEPES buffer using a polytron (Brinkmann, PT10, setting 10) 4×1 second. The homogenate was centrifuged at 39,800 g for 15 min at 4° C. The supernatant was discarded and the pellet re-suspended using a Teflon-in-glass homogeniser in 20 volumes of fresh buffer and re-centrifuged as above. The final pellet was re-suspended using a Teflon-in-glass homogeniser to a tissue concentration of 1 mg.ml^-1 (original wet weight), and filtered through 500 μm pore-size Nytex mesh.
The membranes (400 μl; containing 0.375 μM PD134,308) were incubated for 150 minutes at 21±3° C. in a final volume of 0.5 ml with HEPES buffer containing [^125 I]-CCK8 (S) (50 μl; 200 pM) and competing compound. Total and non-specific binding of [^125 I]-CCK8 (S) were defined using 50 μl of buffer and 50 μl of 100 nM L-364,718 respectively. The assay was terminated by rapid filtration through pre-soaked Whatman GF/B filters using a Brandell Cell Harvester. The filters were washed (3×3 ml) with ice-cold 50 mM Tris HCl (pH 7.4 at 4° C.) and bound radioactivity was determined by counting (1 min) in a gamma counter.

The target in another experiment is T2, CCKB receptor (Mus musculus, UniProt P56481).
T2 construct: The cortex was dissected, weighed and homogenised in 40 ml ice-cold buffer; tissue Charles River (animals); host or cells: cerebral cortex of male CD1 mice, membranes
T2 sequence (P56481 1-453): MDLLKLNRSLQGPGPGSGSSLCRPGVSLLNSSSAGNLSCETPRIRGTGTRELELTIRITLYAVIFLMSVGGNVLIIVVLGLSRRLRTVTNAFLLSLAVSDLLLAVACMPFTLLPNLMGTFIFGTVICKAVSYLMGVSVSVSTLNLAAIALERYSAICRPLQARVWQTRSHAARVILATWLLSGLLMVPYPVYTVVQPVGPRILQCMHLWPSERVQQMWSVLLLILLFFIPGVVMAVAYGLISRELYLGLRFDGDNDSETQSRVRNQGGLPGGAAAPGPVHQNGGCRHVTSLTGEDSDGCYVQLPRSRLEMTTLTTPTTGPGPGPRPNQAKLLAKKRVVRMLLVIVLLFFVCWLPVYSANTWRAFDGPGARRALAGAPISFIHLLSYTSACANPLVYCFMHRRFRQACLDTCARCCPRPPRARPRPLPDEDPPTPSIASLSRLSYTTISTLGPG
Description: radioligand binding assay at the CCKB receptor in mouse cortical membranes ([125I]-CCK8S). As to conditions: [125I]-CCK8S 200 pM, 150 min at 21±3° C.; for Ki: pH 7.2, read-out: pKi (Mouse cortex) (converted); for pKi (Mouse cortex): pH 7.2. A digest of the protocol: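 Male CD1 mouse cortical membranes (2 mg/ml original wet weight) were incubated 150 min at 21±3 °C in HEPES buffer pH 7.2 (130 mM NaCl, 4.7 mM KCl, 5 mM MgCl2, 1 mM EDTA, bacitracin) with [125I]-CCK8S and competitor. Non-specific binding was defined with L-365,260; bound label was measured by GF/B filtration and gamma counting.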

Turning to `CC(=O)N1CCC(=O)c2ccccc2N(Cc2ccccc2)C(=O)C1CC12CC3CC(CC(C3)C1)C2` (racemic) [Example 34, (R/S)-4-acetyl-3-(1-adamantyl)methyl-1-benzyl-2,7-dioxo-2,3,4,5,6,7-hexahydro-1H-1,4-benzodiazonine], the Ki at CCKA was 2.51 µM; on CCKB receptor, 3.98 µM.

As to `CC(=O)N1[C@H](CC23CC4CC(CC(C4)C2)C3)C(=O)N(Cc2ccccc2)c2ccccc2C(=O)C[C@H]1C(=O)O` [Example 11, (3R,5S) 4-acetyl-3-[(1-adamantyl)methyl]-1-benzyl-2,7-dioxo-2,3,4,5,6,7-hexahydro-1H-1,4-benzodiazonine-5-carboxylate], the Ki is 5.01 µM at CCKA and 1 µM at CCKB receptor.

`CCOC(=O)CN1C(=O)CN(C(=O)Nc2cccc(C)c2)CCC(=O)c2ccccc21` [Example 4, 1-ethoxycarbonylmethyl-4-(3-methylphenyl)carbamyl-2,7-dioxo-2,3,4,5,6,7-hexahydro-1H-1,4-benzodiazonine]: the Ki on CCKA is 3.16 µM; on CCKB receptor, 10 µM.

Take `CC1CCN(C(=O)Nc2ccc3ccccc3c2)CC(=O)N(Cc2ccccc2)c2ccccc21` (stereo not drawn) [Example 45, 1-benzyl-7-methyl-4-(2-naphthyl)carbamyl-2-oxo-2,3,4,5,6,7-hexahydro-1H-1,4-benzodiazonine]: the Ki at CCKA was 0.0794 µM; on CCKB receptor, 10 µM.

For `COc1ccc(CN2C(=O)[C@@H](CC34CC5CC(CC(C5)C3)C4)N(C(C)=O)[C@H](C(=O)Nc3cc(C(=O)O)cc(C(=O)O)c3)CC(=O)c3ccccc32)cc1` [Example 31], the results for the Ki at CCKA and on CCKB receptor were 6.31 µM and 1.58 µM, respectively.

Take `CC(=O)N1[C@H](CC23CC4CC(CC(C4)C2)C3)C(=O)N(Cc2cccc(N)c2)c2ccccc2C(=O)C[C@H]1C(=O)O` [Example 17, (3R,5S)-4-acetyl-3-[(1-adamantyl)methyl]-1-(3-amino)benzyl-2,7-dioxo-2,3,4,5,6,7-hexahydro-1H-1,4-benzodiazonine-5-carboxylate]: the Ki at CCKA is 6.31 µM; on CCKB receptor, 1.26 µM.

As to `CC(=O)N1[C@H](CC23CC4CC(CC(C4)C2)C3)C(=O)N(Cc2ccc(Cl)cc2)c2ccccc2C(=O)C[C@H]1C(=O)O` [Example 16, (3R,5S)-4-acetyl-3-[(1-adamantyl)methyl]-1-(4-chloro)benzyl-2,7-dioxo-2,3,4,5,6,7-hexahydro-1H-1,4-benzodiazonine-5-carboxylate], the Ki on CCKA is 2 µM; on CCKB receptor, 1.58 µM.

Take `Cc1cccc(NC(=O)N2CCC(O)c3ccccc3N(Cc3ccccc3)C(=O)C2)c1` (single isomer, unassigned; isomer 2) [Example 8, 1-benzyl-7-hydroxy-4-(3-methylphenyl)carbamyl-2-oxo-2,3,4,5,6,7-hexahydro-1H-1,4-benzodiazonine (isomer 2)]: the Ki on CCKA is 1 µM; at CCKB receptor it was 10 µM.

Take `CC(=O)N1[C@H](CC23CC4CC(CC(C4)C2)C3)C(=O)N(C)c2ccccc2C(=O)C[C@H]1C(=O)NCC(=O)O` [Example 32, (3R,5S)-4-acetyl-3-(1-adamantyl)methyl-5-carboxymethylaminocarbonyl-1-methyl-2,7-dioxo-2,3,4,5,6,7-hexahydro-1H-1,4-benzodiazonine]: the Ki on CCKA was 10 µM; at CCKB receptor, 5.01 µM.

With `CC(=O)N1[C@H](CC23CC4CC(CC(C4)C2)C3)C(=O)N(Cc2ccccc2)c2ccccc2C(=O)C[C@H]1C(=O)N(C)CC(=O)O` (single isomer, unassigned; isomer 2) [Example 30], the “pKi (Guinea pig pancreas)” value on CCKA was 5.1. Besides, the “pKi (Mouse cortex)” value on CCKB receptor came out at 5.0.

In the case of `Nc1cccc(CN2C(=O)C(CC34CC5CC(CC(C5)C3)C4)N(C(=O)CC(=O)O)CCC(=O)c3ccccc32)c1` (racemic) [Example 35, (R/S)-3-(1-adamantyl)methyl-1-(3-amino)benzyl-4-carboxymethylcarbonyl-2,7-dioxo-2,3,4,5,6,7-hexahydro-1H-1,4-benzodiazonine], the Ki at CCKA was 7.94 µM; at CCKB receptor, 2.51 µM.

For “1-benzyl-7-hydroxy-4-(3-methylphenyl)carbamyl-2-oxo-2,3,4,5,6,7-hexahydro- 1H-1,4-benzodiazonine (isomer 1) [Example 7]”, the “pKi (Guinea pig pancreas)” value on CCKA is recorded as 5.8. In addition, the “pKi (Mouse cortex)” value at CCKB receptor stood at 5.0.

With `CC(=O)N1[C@H](CC23CC4CC(CC(C4)C2)C3)C(=O)N(Cc2ccccc2)c2ccccc2C(=O)C[C@H]1C(=O)NCCC(=O)O` [Example 23, (3R,5S)-4-acetyl-3-(1-adamantyl)methyl-1-benzyl-5-(2-carboxy)ethylaminocarbonyl-2,7-dioxo-2,3,4,5,6,7-hexahydro-1H-1,4-benzodiazonine], the figures for the Ki on CCKA and at CCKB receptor were 10 µM and 1 µM, respectively.

Consider `C=C1CCN(C(=O)Nc2cccc(C)c2)CC(=O)N(Cc2ccccc2)c2ccccc21` [Example 9, 1-benzyl-7-methylene-4-(3-methylphenyl)carbamyl-2-oxo-2,3,4,5,6,7-hexahydro-1H-1,4-benzodiazonine], for which the Ki on CCKA was 0.316 µM; at CCKB receptor, 3.98 µM.

In the case of `CC(=O)N1[C@H](CC23CC4CC(CC(C4)C2)C3)C(=O)N(Cc2ccccc2F)c2ccccc2C(=O)C[C@H]1C(=O)NCC(=O)O` [Example 59, (3R,5S)-4-acetyl-3-(1-adamantyl)methyl-1-(2-fluorobenzyl)-5-carboxymethyaminocarbonyl-2,7-dioxo-2,3,4,5,6,7-hexahydro-1H-1,4-benzodiazonine], the Ki is 10 µM on CCKA and 0.1 µM on CCKB receptor.

For `CC(=O)N1[C@@H](C(=O)NCC(=O)O)CC(=O)c2ccccc2N(Cc2ccccc2)C(=O)[C@@H]1CC12CC3CC(CC(C3)C1)C2` [Example 36, (3S,5R)-4-acetyl-3-(1-adamantyl)methyl-1-benzyl-5-carboxymethylaminocarbonyl-2,7-dioxo-2,3,4,5,6,7-hexahydro-1H-1,4-benzodiazonine], the Ki at CCKA was 5.01 µM; on CCKB receptor, 3.16 µM.

`CC(=O)N1[C@H](CC23CC4CC(CC(C4)C2)C3)C(=O)N(Cc2ccccc2)c2ccccc2C(=O)C[C@H]1C(=O)N1CCC[C@H]1C(=O)O` (single isomer, unassigned; isomer 2) [Example 28]: on CCKA, the “pKi (Guinea pig pancreas)” value was determined as 4.6. In addition, the “pKi (Mouse cortex)” value on CCKB receptor is recorded as 5.4.

Take `CC(=O)N1[C@H](CC23CC4CC(CC(C4)C2)C3)C(=O)N(Cc2cccc(F)c2)c2ccccc2C(=O)C[C@H]1C(=O)NCC(=O)O` [Example 60, (3R,5S)-4-acetyl-3-(1-adamantyl)methyl-1-(3-fluorobenzyl)-5-carboxymethylaminocarbonyl-2,7-dioxo-2,3,4,5,6,7-hexahydro-1H-1,4-benzodiazonine]: the Ki at CCKA is 10 µM; on CCKB receptor it was 0.2 µM.
